In BindingDB's records for doi:10.3109/14756369809021481 (Laboratoire De Chimie Bioorganique, 1998):

Target: S-adenosylmethionine synthase isoform type-2 (Rattus norvegicus, UniProt P18298)
Assay: Inhibition Assay
Settings: pH 7.5; 37 °C
Procedure: AdoMet synthetase activity was measured by a radioactive assay using (14C-methyl)-L-methionine as described by Sullivan and Hoffman with minor modification to give better efficiency in the separation of labelled residual methionine and AdoMet formed.

Chain of S-adenosylmethionine synthase isoform type-2 (P18298 whole entry, canonical isoform): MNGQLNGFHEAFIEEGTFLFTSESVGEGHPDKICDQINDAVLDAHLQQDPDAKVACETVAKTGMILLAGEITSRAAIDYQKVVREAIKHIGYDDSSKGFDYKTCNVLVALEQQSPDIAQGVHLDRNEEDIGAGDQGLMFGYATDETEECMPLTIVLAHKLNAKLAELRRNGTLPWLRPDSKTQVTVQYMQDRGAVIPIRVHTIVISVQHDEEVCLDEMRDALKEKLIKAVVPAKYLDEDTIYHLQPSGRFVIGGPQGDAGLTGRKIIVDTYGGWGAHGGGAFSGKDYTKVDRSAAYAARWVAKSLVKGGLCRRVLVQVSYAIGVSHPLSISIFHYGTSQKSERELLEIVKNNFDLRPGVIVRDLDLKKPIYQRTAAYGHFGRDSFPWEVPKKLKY

Row | SMILES | IC50 [µM] | Ki [µM]
1 | C[C@H]1O[C@H]1C[C@H](N)C(=O)O [Epoxy analogue, I(b)] | 100 | 61
2 | N[C@@H](C[C@H]1CO1)C(=O)O [Epoxy analogue, I(a)] | 50 | 7
3 | C[C@@H]1S[C@@H]1C[C@H](N)C(=O)O [Epithioamino acid analogue, II(c)] | 400 | 140
4 | C[C@H]1S[C@@H]1C[C@H](N)C(=O)O [Epithioamino acid analogue, II(b)] | 300 | 140
5 | N[C@@H](C[C@@H]1CS1)C(=O)O [Epithioamino acid analogue, II(a)] | 140 | 100
6 | C[C@@H]1O[C@H]1C[C@H](N)C(=O)O [Epoxy analogue, I(c)] | 110 | 105
